# Values quoted from earlier work in US12026655B2, “Systems and methods for post-harvest crop quality management” (priority 2017, dated 2024).
# Read-outs that look alike come from different tables or passages of the source.
# What was measured:
# [1] = test system: tobacco moth and susceptible cigarette beetle
# [2] = test system: resistant cigarette beetle
# Rhyzopertha dominica = conditions: e(x, t)>1 means at least 99.9% of the insect population killed
# [3] = tobacco temperature 16-20 °C (61-68 °F), 300 ppm phosphine at the bale/case centre
structure (smiles),measurement,setting,value
P [phosphine],Minimum Exposure Time to achieve 100% control of all development stages,[1]; [3],6 days
same,Minimum Exposure Time to achieve 100% control of all development stages,"[1]; tobacco temperature >20 °C (>68 °F), 200 ppm phosphine at the bale/case centre",4 days
same,Minimum Exposure Time to achieve 100% control of all development stages,[2]; [3],12 days
same,Minimum Exposure Time to achieve 100% control of all development stages,"[2]; tobacco temperature 20-25 °C (68-77 °F), 300 ppm phosphine at the bale/case centre",12 days
same,Minimum Exposure Time to achieve 100% control of all development stages,"[2]; tobacco temperature 20-25 °C (68-77 °F), 700 ppm phosphine at the bale/case centre",10 days
same,Minimum Exposure Time to achieve 100% control of all development stages,"[2]; tobacco temperature >25 °C (>77 °F), 300 ppm phosphine at the bale/case centre",12 days
same,Minimum Exposure Time to achieve 100% control of all development stages,"[2]; tobacco temperature >25 °C (>77 °F), 600 ppm phosphine at the bale/case centre",6 days
same,"empirical constant a1 of the extinction indicator function e(x, t)",Rhyzopertha dominica,4.04
same,"empirical constant a2 of the extinction indicator function e(x, t)",Rhyzopertha dominica,0.6105
